Measured values as given in patent US20250115600A1, “COVALENT MODIFIERS OF AKT1 AND USES THEREOF” (Terremoto Biosciences, Inc., priority 2022, published 2025).

Legend:
Assay in all cases: Live cell target engagement (NanoBRET) in HEK293 cells
Format in all cases: cell-based
AKT1 WT = AKT1 WT (Homo sapiens (Human), UniProt P31749); details: HEK293, 2 hours at 37° C.
AKT1 E17K = AKT1 E17K (Homo sapiens (Human), UniProt P31749, E17K); details: for IC50: HEK293, 2 hours at 37° C.
AKT2 = AKT2 (Homo sapiens (Human), UniProt P31751); details: HEK293, 2 hours at 37° C.
AKT2, sequence (P31751 whole entry): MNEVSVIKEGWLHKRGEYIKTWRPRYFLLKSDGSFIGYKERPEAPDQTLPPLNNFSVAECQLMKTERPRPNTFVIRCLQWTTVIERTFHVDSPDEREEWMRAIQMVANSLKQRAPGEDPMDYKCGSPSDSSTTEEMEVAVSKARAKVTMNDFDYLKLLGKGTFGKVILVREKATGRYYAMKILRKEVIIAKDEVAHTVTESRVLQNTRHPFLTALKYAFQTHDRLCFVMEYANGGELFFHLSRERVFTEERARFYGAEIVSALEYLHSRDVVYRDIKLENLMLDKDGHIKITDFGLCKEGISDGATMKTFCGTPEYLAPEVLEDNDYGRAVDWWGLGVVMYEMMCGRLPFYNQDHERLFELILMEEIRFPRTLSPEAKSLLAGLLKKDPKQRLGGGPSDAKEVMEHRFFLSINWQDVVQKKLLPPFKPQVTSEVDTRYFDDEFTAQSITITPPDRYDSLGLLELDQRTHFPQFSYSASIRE

AKT1 E17K, sequence (P31749 whole entry E17K): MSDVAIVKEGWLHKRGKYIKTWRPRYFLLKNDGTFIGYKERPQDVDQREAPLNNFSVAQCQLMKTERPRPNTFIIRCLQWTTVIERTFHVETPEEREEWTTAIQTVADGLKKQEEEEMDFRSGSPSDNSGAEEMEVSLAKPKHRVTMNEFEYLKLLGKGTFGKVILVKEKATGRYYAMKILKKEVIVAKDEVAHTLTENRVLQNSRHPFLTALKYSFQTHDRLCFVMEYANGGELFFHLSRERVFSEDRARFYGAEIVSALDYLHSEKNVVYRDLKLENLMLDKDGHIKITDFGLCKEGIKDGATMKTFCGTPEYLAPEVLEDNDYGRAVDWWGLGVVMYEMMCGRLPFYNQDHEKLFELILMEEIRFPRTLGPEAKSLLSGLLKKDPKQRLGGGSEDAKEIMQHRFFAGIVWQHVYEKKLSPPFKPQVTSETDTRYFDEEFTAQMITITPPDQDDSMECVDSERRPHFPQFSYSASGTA
AKT1 WT, sequence (P31749 whole entry): as the sequence (P31749 whole entry E17K) above, with K17E counted along it

Row | IC50 (AKT1 WT) [nM] | AKT1 E17K IC50: Selectivity vs AKT1 WT (AKT1 E17K) | AKT1 E17K IC50: Selectivity vs AKT2 (AKT1 E17K) | IC50 (AKT1 E17K) [nM] | IC50 (AKT2) [nM] | Structure (SMILES)
1 | 100 to 500 | 0.26 | 0.75 | 100 to 500 | 100 to 500 | C[C@H](NCCc1ccc(O)c(C=O)c1)c1ccc(-n2c(-c3cccnc3N)nc3ccc(-c4ccccc4)nc32)cc1 [Compound 92, 5-(2-{[(1S)-1-{4-[2-(2-aminopyridin-3-yl)-5-phenylimidazo[4,5-b]pyridin-3-yl]phenyl}ethyl]amino}ethyl)-2-hydroxybenzaldehyde]
2 | 100 to 500 | 3.9 | 50 | < 100 | > 500 | Nc1ncccc1-c1nc2cccnc2n1-c1ccc(CNC(=O)Cc2ccc(C=O)c(O)c2F)cc1 [Compound 93, N-({4-[2-(2-aminopyridin-3-yl)imidazo[4,5-b]pyridin-3-yl]phenyl}methyl)-2-(2-fluoro-4-formyl-3-hydroxyphenyl)acetamide]
3 | > 500 | 1.8 | 2.5 | > 500 | > 500 | Nc1ncccc1-c1nc2cccnc2n1-c1ccc(CNCCc2ccc(C=O)c(O)c2F)cc1 [Compound 95, 4-(2-((4-(2-(2-aminopyridin-3-yl)-3H-imidazo[4,5-b]pyridin-3-yl)benzyl)amino)ethyl)-3-fluoro-2-hydroxybenzaldehyde]
4 | < 100 | 0.56 | 1.9 | < 100 | 100 to 500 | COc1cc(CCNCc2ccc(-n3c(-c4cccnc4N)nc4ccc(-c5ccccc5)nc43)cc2)ccc1C=O [Compound 97, 4-{2-[({4-[2-(2-aminopyridin-3-yl)-5-phenylimidazo[4,5-b]pyridin-3-yl]phenyl}methyl)amino]ethyl}-2-methoxybenzaldehyde]
5 | < 100 | 2.5 | 38 | < 100 | > 500 | CC(=O)Nc1cc(CCNCc2ccc(-n3c(-c4cccnc4N)nc4cccnc43)cc2)ccc1C=O [Compound 98, N-(5-{2-[({4-[2-(2-aminopyridin-3-yl)imidazo[4,5-b]pyridin-3-yl]phenyl}methyl)amino]ethyl}-2-formylphenyl)acetamide]
6 | 100 to 500 | 3.7 | 8.4 | < 100 | > 500 | Nc1ncccc1-c1nc2ccc(Cl)nc2n1-c1ccc(CNCCc2ccc(C=O)c(O)c2)cc1 [Compound 99, 4-{2-[({4-[2-(2-aminopyridin-3-yl)-5-chloroimidazo[4,5-b]pyridin-3-yl]phenyl}methyl)amino]ethyl}-2-hydroxybenzaldehyde]
7 | 100 to 500 | 1.9 | 13 | 100 to 500 | > 500 | CN(C(=O)CCc1ccc(C=O)c(O)c1)c1ccc(-n2c(-c3cccnc3N)nc3ccc(-c4ccccc4)nc32)cc1 [Compound 100, N-(4-(2-(2-aminopyridin-3-yl)-5-phenyl-3H-imidazo[4,5-b]pyridin-3-yl)phenyl)-3-(4-formyl-3-hydroxyphenyl)-N-methylpropanamide]
8 | < 100 | 1.8 | 5.9 | < 100 | 100 to 500 | CS(=O)(=O)Nc1cccc(-c2ccc3nc(-c4cccnc4N)n(-c4ccc(CNCCc5ccc(C=O)c(O)c5)cc4)c3n2)c1 [Compound 101, N-{3-[2-(2-aminopyridin-3-yl)-3-[4-({[2-(4-formyl-3-hydroxyphenyl)ethyl]amino}methyl)phenyl]imidazo[4,5-b]pyridin-5-yl]phenyl}methanesulfonamide]
9 | 100 to 500 | 1.1 | 2 | 100 to 500 | > 500 | CC(=O)Nc1cccc(-c2ccc3nc(-c4cccnc4N)n(-c4ccc(CNCCc5ccc(C=O)c(O)c5F)cc4)c3n2)c1 [Compound 102, N-{3-[2-(2-aminopyridin-3-yl)-3-[4-({[2-(2-fluoro-4-formyl-3-hydroxyphenyl)ethyl]amino}methyl)phenyl]imidazo[4,5-b]pyridin-5-yl]phenyl}acetamide]
10 | < 100 | 2.5 | 11 | < 100 | 100 to 500 | Nc1ncccc1-c1nc2ccc(-c3ccccn3)nc2n1-c1ccc(CNCCc2ccc(C=O)c(O)c2)cc1 [Compound 103, 4-{2-[({4-[2-(2-aminopyridin-3-yl)-5-(pyridin-2-yl)imidazo[4,5-b]pyridin-3-yl]phenyl}methyl)amino]ethyl}-2-hydroxybenzaldehyde]
11 | > 500 | 0.72 | 1 | > 500 | > 500 | Nc1ncccc1-c1nc2ccc(-c3ccccc3)nc2n1-c1ccc(C(=O)NCC#Cc2ccc(C=O)c(O)c2)cc1 [Compound 104, 4-(2-(2-aminopyridin-3-yl)-5-phenyl-3H-imidazo[4,5-b]pyridin-3-yl)-N-(3-(4-formyl-3-hydroxyphenyl)prop-2-yn-1-yl)benzamide]
12 | > 500 | 1 | >1.0 | > 500 | > 500 | C[C@@H](NCCc1ccc(O)c(C=O)c1)c1ccc(-n2c(-c3cccnc3N)nc3ccc(-c4ccccc4)nc32)cc1 [Compound 105, (R)-5-(2-((1-(4-(2-(2-aminopyridin-3-yl)-5-phenyl-3H-imidazo[4,5-b]pyridin-3-yl)phenyl)ethyl)amino)ethyl)-2-hydroxybenzaldehyde]
13 | > 500 | 0.85 | 0.91 | > 500 | > 500 | Nc1ncccc1-c1nc2ccc(-c3ccccc3)nc2n1-c1ccc(S(=O)(=O)NCCc2ccc(C=O)c(O)c2)cc1 [Compound 106, 4-[2-(2-aminopyridin-3-yl)-5-phenylimidazo[4,5-b]pyridin-3-yl]-N-[2-(4-formyl-3-hydroxyphenyl)ethyl]benzenesulfonamide]
14 | < 100 | 1.2 | 2.1 | < 100 | < 100 | Nc1ncccc1-c1nc2ccc(-c3cccc(N4CCOCC4)c3)nc2n1-c1ccc(CNCCc2ccc(C=O)c(O)c2)cc1 [Compound 108, 4-(2-((4-(2-(2-aminopyridin-3-yl)-5-(3-morpholinophenyl)-3H-imidazo[4,5-b]pyridin-3-yl)benzyl)amino)ethyl)-2-hydroxybenzaldehyde]
15 | < 100 | 0.63 | 0.6 | < 100 | < 100 | CC(=O)N(C)C1CCN(c2cccc(-c3ccc4nc(-c5cccnc5N)n(-c5ccc(CNCCc6ccc(C=O)c(O)c6)cc5)c4n3)c2)CC1 [Compound 109, N-(1-{3-[2-(2-aminopyridin-3-yl)-3-[4-({[2-(4-formyl-3-hydroxyphenyl)ethyl]amino}methyl)phenyl]imidazo[4,5-b]pyridin-5-yl]phenyl}piperidin-4-yl)-N-methylacetamide]
16 | < 100 | 0.83 | 6.3 | < 100 | 100 to 500 | Nc1ncccc1-c1nc2ccc(-c3ccccc3)nc2n1-c1ccc(CCNC(=O)c2ccc(C=O)c(O)c2)cc1 [Compound 111, N-(2-{4-[2-(2-aminopyridin-3-yl)-5-phenylimidazo[4,5-b]pyridin-3-yl]phenyl}ethyl)-4-formyl-3-hydroxybenzamide]
17 | > 500 | 1 | 1 | > 500 | > 500 | Nc1ncccc1-c1nc2ccc(-c3ccccc3)nc2n1-c1ccc(C(=O)NCCc2ccc(C=O)c(O)c2)cn1 [Compound 112, 6-[2-(2-aminopyridin-3-yl)-5-phenylimidazo[4,5-b]pyridin-3-yl]-N-[2-(4-formyl-3-hydroxyphenyl)ethyl]pyridine-3-carboxamide]
18 | 100 to 500 | 2.5 | 57 | < 100 | > 500 | Nc1ncccc1-c1nc2ccc(-c3cccnc3)nc2n1-c1ccc(CNCCc2ccc(C=O)c(O)c2)cc1 [Compound 113, 4-(2-((4-(2-(2-aminopyridin-3-yl)-5-(pyridin-3-yl)-3H-imidazo[4,5-b]pyridin-3-yl)benzyl)amino)ethyl)-2-hydroxybenzaldehyde]
19 | 100 to 500 | 1.2 | 4.9 | < 100 | 100 to 500 | CC(NC(=O)Cc1ccc(O)c(C=O)c1)c1ccc(-n2c(-c3cccnc3N)nc3ccc(-c4ccccc4)nc32)cc1 (stereo not drawn) [Compound 115, N-(1-(4-(2-(2-aminopyridin-3-yl)-5-phenyl-3H-imidazo[4,5-b]pyridin-3-yl)phenyl)ethyl)-2-(3-formyl-4-hydroxyphenyl)acetamide]
20 | < 100 | 1.9 | 10 | < 100 | 100 to 500 | CC(NC(=O)Cc1ccc(C=O)c(O)c1)c1ccc(-n2c(-c3cccnc3N)nc3ccc(-c4ccccc4)nc32)cc1 (stereo not drawn) [Compound 116, N-(1-{4-[2-(2-aminopyridin-3-yl)-5-phenylimidazo[4,5-b]pyridin-3-yl]phenyl}ethyl)-2-(4-formyl-3-hydroxyphenyl)acetamide]
21 | < 100 | 1.6 | 29 | < 100 | 100 to 500 | Nc1ncccc1-c1nc2ccc(-c3ccccc3)nc2n1-c1ccc(NC(=O)CCc2ccc(C=O)c(O)c2)cc1 [Compound 118, N-(4-(2-(2-aminopyridin-3-yl)-5-phenyl-3H-imidazo[4,5-b]pyridin-3-yl)phenyl)-3-(4-formyl-3-hydroxyphenyl)propanamide]
